These results are taken from ChEMBL document CHEMBL1201862, “PubChem BioAssay data set” (2004).

Molecules are shown by their SMILES. “And” between values parts separate entries of the source, which are not always exact repeats. Equal entries are not always repeated. The source made the active and inactive calls.

In assay [1] the target is T1, Cytochrome P450 1A2 (Homo sapiens, UniProt P05177).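 Also: PubChem cytochrome P450 panel assay, CYP1A2 panel member.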
T1 sequence (P05177 whole entry): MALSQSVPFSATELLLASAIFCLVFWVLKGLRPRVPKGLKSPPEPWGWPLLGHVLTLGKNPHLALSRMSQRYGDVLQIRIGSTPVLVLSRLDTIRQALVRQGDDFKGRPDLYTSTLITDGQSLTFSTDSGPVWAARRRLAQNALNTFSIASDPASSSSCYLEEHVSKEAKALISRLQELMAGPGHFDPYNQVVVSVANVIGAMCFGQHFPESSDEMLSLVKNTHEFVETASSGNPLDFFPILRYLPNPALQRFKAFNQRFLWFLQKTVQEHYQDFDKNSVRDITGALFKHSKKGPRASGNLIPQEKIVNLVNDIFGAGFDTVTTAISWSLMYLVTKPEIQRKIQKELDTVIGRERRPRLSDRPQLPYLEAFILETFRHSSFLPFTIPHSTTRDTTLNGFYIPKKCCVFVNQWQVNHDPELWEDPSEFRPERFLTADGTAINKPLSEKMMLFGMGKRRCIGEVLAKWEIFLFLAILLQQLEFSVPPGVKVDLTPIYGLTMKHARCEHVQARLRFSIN

Assay [2] deals with Cytochrome P450 2D6 (Homo sapiens, UniProt P10635).
Cytochrome P450 2D6, sequence (P10635 whole entry): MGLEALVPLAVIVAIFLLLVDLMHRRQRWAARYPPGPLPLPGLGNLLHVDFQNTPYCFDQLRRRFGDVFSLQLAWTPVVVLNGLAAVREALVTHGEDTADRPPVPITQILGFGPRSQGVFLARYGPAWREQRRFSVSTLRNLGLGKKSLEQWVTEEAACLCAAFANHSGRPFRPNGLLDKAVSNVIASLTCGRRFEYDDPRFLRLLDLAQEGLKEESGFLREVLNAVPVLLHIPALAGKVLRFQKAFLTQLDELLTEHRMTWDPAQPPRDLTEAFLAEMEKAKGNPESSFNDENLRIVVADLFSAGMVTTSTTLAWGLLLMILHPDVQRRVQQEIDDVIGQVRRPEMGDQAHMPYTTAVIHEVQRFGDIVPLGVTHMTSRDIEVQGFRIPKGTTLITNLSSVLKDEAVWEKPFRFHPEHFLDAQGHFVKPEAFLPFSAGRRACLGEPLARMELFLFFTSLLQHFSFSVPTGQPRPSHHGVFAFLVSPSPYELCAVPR
The target in assay [3] is Cytochrome P450 2C9 (Homo sapiens, UniProt P11712).
Cytochrome P450 2C9, sequence (P11712 whole entry): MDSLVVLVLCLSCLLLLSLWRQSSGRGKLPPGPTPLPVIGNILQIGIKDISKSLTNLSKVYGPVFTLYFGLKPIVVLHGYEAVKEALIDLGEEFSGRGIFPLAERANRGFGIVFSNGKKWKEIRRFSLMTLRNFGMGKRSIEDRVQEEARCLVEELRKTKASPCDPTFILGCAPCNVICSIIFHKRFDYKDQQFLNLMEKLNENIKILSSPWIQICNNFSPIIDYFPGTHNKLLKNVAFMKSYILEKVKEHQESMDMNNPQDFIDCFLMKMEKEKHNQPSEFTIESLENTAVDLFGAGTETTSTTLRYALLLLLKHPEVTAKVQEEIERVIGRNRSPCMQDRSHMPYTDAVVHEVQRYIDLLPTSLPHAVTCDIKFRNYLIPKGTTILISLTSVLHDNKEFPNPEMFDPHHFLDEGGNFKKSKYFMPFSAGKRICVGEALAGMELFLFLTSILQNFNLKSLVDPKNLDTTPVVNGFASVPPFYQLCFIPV
The subject of assay [4] is Streptococcus. Briefly: GAS UMAA2166 growth inhibition – luminescence, BacTiterGlo, counter-screen for streptokinase expression inhibitor project, dose response (AID 1915).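 Also: potency for reduction of bacterial viability or growth.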 It is filed as functional, organism-based. (In general: A counterscreen serves to expose hits that act by an unwanted route or on another target.)
The subject of assay [5] is Streptococcus sp. 'group A'. Briefly: Streptococcus pyogenes SK(-)GAS viability under kanamycin – luminescence, BacTiterGlo, confirmation, counter-screen for streptokinase expression inhibitor project, dose response (AID 1900). It is filed as functional, organism-based.
A short description of assay [6]: Trypanosoma cruzi growth suppression in host cells – NIH3T3 host cells, beta-gal luminescence, confirmation (AID 2044).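 Also: intracellular parasites grown in NIH/3T3 mouse fibroblasts as host cells; luminescent beta-galactosidase reporter signal from transgenic T. cruzi replicating inside host cells; inhibitors lower the luminescence signal.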 It is filed as functional, cell-based.
Assay [7] in a line: NIH3T3 cell viability loss – ATP luminescence, mouse fibroblasts, counter-screen, dose response (AID 2010).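 Also: cells exposed to compound for about 90 hours before reading.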 It is filed as functional, cell-based.
In assay [8] the target is Cytochrome P450 3A4 (Homo sapiens, UniProt P08684).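 Also: CYP3A4 tested as one member of a cytochrome P450 panel screen.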
Cytochrome P450 3A4, sequence (P08684 whole entry): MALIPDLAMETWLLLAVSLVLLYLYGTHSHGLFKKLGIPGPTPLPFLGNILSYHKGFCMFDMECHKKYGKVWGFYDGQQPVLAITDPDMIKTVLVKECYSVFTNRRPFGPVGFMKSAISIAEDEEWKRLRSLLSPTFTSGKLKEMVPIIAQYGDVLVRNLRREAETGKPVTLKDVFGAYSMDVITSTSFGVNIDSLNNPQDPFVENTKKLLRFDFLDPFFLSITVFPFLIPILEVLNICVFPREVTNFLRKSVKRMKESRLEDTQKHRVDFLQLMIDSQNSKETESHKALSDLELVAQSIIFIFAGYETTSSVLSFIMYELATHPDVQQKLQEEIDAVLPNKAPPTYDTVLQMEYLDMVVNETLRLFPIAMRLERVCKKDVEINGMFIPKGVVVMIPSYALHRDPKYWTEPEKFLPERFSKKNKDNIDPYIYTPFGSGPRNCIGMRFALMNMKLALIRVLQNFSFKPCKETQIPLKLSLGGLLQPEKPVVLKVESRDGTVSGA
Assay [9] concerns the target T2, Corticotropin-releasing factor receptor 2/Corticotropin-releasing factor-binding protein (Homo sapiens, UniProt P24387+Q13324).
T2 sequence (Q13324 whole entry): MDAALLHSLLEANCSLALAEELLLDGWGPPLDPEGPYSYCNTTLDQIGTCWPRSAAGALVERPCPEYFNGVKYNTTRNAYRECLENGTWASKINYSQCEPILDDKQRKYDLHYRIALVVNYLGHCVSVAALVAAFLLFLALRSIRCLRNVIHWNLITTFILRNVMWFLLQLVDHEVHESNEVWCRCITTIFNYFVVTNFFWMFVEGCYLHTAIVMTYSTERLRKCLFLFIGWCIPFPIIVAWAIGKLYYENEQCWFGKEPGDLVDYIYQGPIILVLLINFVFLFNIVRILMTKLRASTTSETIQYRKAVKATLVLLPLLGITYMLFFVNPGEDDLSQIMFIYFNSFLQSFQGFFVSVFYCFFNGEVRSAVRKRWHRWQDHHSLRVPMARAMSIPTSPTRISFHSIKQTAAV
T2 sequence (P24387 whole entry): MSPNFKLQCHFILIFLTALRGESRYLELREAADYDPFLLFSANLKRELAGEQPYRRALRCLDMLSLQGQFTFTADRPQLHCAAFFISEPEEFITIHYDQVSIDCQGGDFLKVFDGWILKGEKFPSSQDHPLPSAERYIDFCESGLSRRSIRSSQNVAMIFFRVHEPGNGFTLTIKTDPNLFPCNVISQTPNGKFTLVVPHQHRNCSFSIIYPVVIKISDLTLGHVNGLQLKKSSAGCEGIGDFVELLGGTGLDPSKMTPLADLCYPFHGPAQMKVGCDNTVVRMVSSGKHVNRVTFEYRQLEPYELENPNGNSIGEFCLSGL
Briefly: activators of CRF receptor 2 with binding protein – uHTS hits, confirmation (AID 602473). It is filed as functional. As to conditions: read-out: EC50_Mean.

One may read the AC50 as the concentration at which the activity in the assay is half-maximal. Regarding `CCCCn1c(SCc2c(C)noc2C)nc2cc(S(N)(=O)=O)ccc21`, the concentration at half-maximal activity (AC50) in [1] was 6.31 µM (inconclusive). In the case of `CC(C(=O)Nc1ccccc1Sc1ccccc1)N(c1ccccc1)S(C)(=O)=O` (stereo not given), the half-maximal activity concentration (AC50) in assay [2] was 25.1 µM (inconclusive). Regarding `COC(=O)[C@@]1(Cc2ccc(OC)cc2)[C@H]2c3cc(C(=O)N(C)C)n(CCc4ccc(OC)c(Br)c4)c3C[C@H]2CN1C(=O)c1ccccc1`, the AC50 in assay [2] was 0.0501 µM (inconclusive).

For `Nc1nc(Nc2ccccc2)nc2c1ncn2[C@@H]1O[C@@H](CO)[C@H](O)[C@@H]1O`, the AC50 in [1] is 31.6 µM (inconclusive). In the case of `C[C@@H]1C[C@H](C)CN(S(=O)(=O)c2cc(Cl)c(Oc3ccc([N+](=O)[O-])cc3Cl)c(Cl)c2)C1`, the AC50 in assay [3] was 6.31 µM (inconclusive). Consider `Cc1nc(O)c2nsc(C(=O)Nc3ccc(N4CCCC(O)C4)cc3)c2n1` (stereo not given), for which the figures for the EC50 in [4] and in assay [5] were > 150 µM (not active) and 3.32 µM (active), respectively. Regarding `Clc1ccc(-c2noc(CN3CCCCC3)n2)cc1`, in [2], the AC50 is 3.16 µM (inconclusive). Take `Cc1cccc(C(CC(=O)N2CCCC2)c2ccccc2)c1O` (stereo not given): in assay [1], the half-maximal activity concentration (AC50) is 15.8 µM (inconclusive). With `CCN1CCN(c2cc(C)c3cc(NC(=O)Cc4ccccc4OC)ccc3n2)CC1`, the EC50 in [6] was 1.14 µM (active); in assay [7] it was > 60 µM (not active).

Consider `COc1ccc2[nH]cc(CCNc3ccnc(-c4ccccc4C)n3)c2c1`, for which the AC50 in [3] was 1.26 µM (inconclusive).

On to `O=C(O)c1ccccc1C1c2ccccc2Oc2ccccc21`, for which the half-maximal activity concentration (AC50) in assay [3] is 3.98 µM (inconclusive).

On to `CC(C)CCc1noc(CN(C)CC2CCN(Cc3ccccc3)CC2)n1`, for which the EC50 in assay [6] was 1.47 µM (active); in assay [7], > 60 µM (not active). As for `Cn1c(C(=O)O)c(CC(=O)NCc2cccnc2)c2ccccc21`, the AC50 in assay [1] was 10 µM (inconclusive). For the molecule `CC(C)COP(=O)(OCC(C)C)C(O)c1ccccc1F` (stereo not given), in [8], the AC50 was 3.98 µM (inconclusive). Consider `CCCCCCCCCn1cc(C(C)=O)c(=O)[nH]c1=O`, for which the AC50 in assay [1] is 14.1 µM (inconclusive). On to `CCCN1CN=C(S)N(c2cccc(C)c2C)C1`, for which the AC50 in [8] is 15.8 µM (inconclusive). `Clc1ccccc1-c1ccc2ncnc(NC3CCNCC3)c2c1`: the results for the half-maximal activity concentration (AC50) in assay [2] and in assay [1] were 20 µM (inconclusive) and 15.8 µM (inconclusive), respectively. Turning to `CCO[C@@H]1OC(C(=O)N2CCN(Cc3ccc4c(c3)OCO4)CC2)=C[C@H](C2CCCCC2)[C@H]1CCCO`, the EC50 in assay [6] is 1.01 µM (active); in assay [7] it was > 60 µM (not active). With `COC(=O)c1cc(NC(=O)CC2NC3CCCCC3NC2=O)cc(C(=O)OC)c1` (stereo not given), in assay [3], the concentration at half-maximal activity (AC50) is 12.6 µM (inconclusive).

Regarding `Cc1nn(-c2ccccc2)c(N2CCCC2)c1/C=N/NC(=O)c1cc(-c2ccccc2)nc2ccccc12`, the EC50 is 1.96 µM (active) in assay [6] and > 60 µM (not active) in [7].

Regarding `CCCCC[C@H](O)c1cccc(OCc2ccc3ccccc3n2)c1`, the AC50 in assay [3] is 31.6 µM (inconclusive). With `CN(C)c1nc2c(c(=O)[nH]c(=O)n2C)n1Cc1ccccc1Br`, the concentration at half-maximal activity (AC50) was 25.1 µM (inconclusive) in assay [2], 0.0708 µM (inconclusive) in [3] and 28.2 µM (inconclusive) in assay [1]. As to `COc1ccc2[nH]c(C)c(CCN(Cc3cccs3)C(S)=Nc3ccccc3OC)c2c1`, the EC50 was 2.08 µM (active) in assay [6] and > 60 µM (not active) in [7]. Consider `O=c1onc(-c2cccs2)n1Cc1ccccc1`, for which the AC50 in assay [3] is 31.6 µM (inconclusive).

Regarding `O=[N+]([O-])c1cc(Cc2cc([N+](=O)[O-])c3cccnc3c2O)c(O)c2ncccc12`, the concentration at half-maximal activity (AC50) in [2] was 3.98 µM (inconclusive); in assay [3] it was 5.01 µM (inconclusive). `CCOC(=O)c1cc2c(=O)n3ccccc3nc2n(C(C)C)/c1=N/C(=O)c1c(-c2c(F)cccc2Cl)noc1C`: the EC50 in assay [6] is 2.18 µM (active); in [7] it was > 60 µM (inconclusive). For `O=C(OC(c1ccccc1)c1nccc2ccccc12)c1cc([N+](=O)[O-])cc([N+](=O)[O-])c1` (stereo not given), in that order: 1.01 µM (active) and > 60 µM (not active). `CN(Cc1ccco1)c1ncnc2ccc(-c3ccccc3Cl)cc12`: the concentration at half-maximal activity (AC50) in assay [3] was 1.58 µM (inconclusive). For the molecule `Cc1cnc(CNc2nc(-c3ccc(N(C)C)cc3)nc3ccccc23)cn1`, the AC50 in [2] is 39.8 µM (inconclusive). The same measure, in the same setting: in the case of `CCCC(=O)Nc1ccc(C(=O)NNC(=S)NC(=O)c2cccs2)cc1` it was 39.8 µM (inconclusive).

Consider `COc1cccc(CNc2ccc(F)c(Cl)c2)c1O`, for which the AC50 in assay [8] was 35.5 µM (inconclusive).

As to `Nc1nonc1-c1nc2ccccc2n1CC(=O)N/N=C\c1ccc(-c2ccc(Cl)cc2)o1`, the figures for the EC50 in [4] and in [5] were 2.38 µM (active) and 1.02 µM (active), respectively.

Turning to `O=C(Nc1ncc(Cc2ccccc2Cl)s1)c1ccc(-c2cccc([N+](=O)[O-])c2)o1`, the values for the EC50 in assay [6] and in [7] were 1.57 µM (active) and > 60 µM (inconclusive), respectively.

`c1ccc([C@@H]2CN3CCSC3=N2)cc1` [DEXAMISOLE]: the AC50 in [2] was 31.6 µM (inconclusive) and 10 µM (inconclusive) and 20 µM (inconclusive). Turning to `CCc1ccccc1NC(=O)C(C)n1nc([N+](=O)[O-])c(Br)c1C` (stereo not given), the concentration at half-maximal activity (AC50) in assay [1] is 28.2 µM (inconclusive). Take `O=C(CSc1nnc(Cc2cc(O)nc(O)n2)n1-c1ccccc1)N1CCCc2ccccc21`: the AC50 in assay [8] was 15.8 µM (inconclusive). Same read-out and setting: with `CCOc1ccc(-n2c(SCC(=O)Nc3ccc(OC)cc3OC)nc3c(c2=O)SCC3)cc1` the figure was 15.8 µM (inconclusive). Regarding `COc1ccc(-c2nc3cnc(N4CCOCC4)nc3n(Cc3cccs3)c2=O)cc1`, in assay [1], the concentration at half-maximal activity (AC50) is 2.51 µM (inconclusive).

For `CCCCCn1/c(=N/C(=O)c2cccnc2)c(C#N)cc2c(=O)n3cccc(C)c3nc21`, the EC50 in assay [9] is > 53 µM (inactive). In the case of `CCn1cc(CN2CCCC(C(=O)c3ccc(-c4ccccc4)c(F)c3)C2)cn1` (stereo not given), the EC50 in [6] is 0.569 µM (active); in assay [7] it was > 60 µM (not active).

For the molecule `O=C(NC(N1CCOCC1)C(Cl)(Cl)Cl)c1cc([N+](=O)[O-])cc([N+](=O)[O-])c1` (stereo not given), the EC50 is 0.9 µM (active) in assay [6] and > 60 µM (not active) in [7].

Regarding `CO/C(O)=C1\C(C)=NC(C)=C([N+](=O)[O-])[C@@H]1c1ccccc1C(F)(F)F`, the AC50 in [1] was 39.8 µM (inconclusive). As for `C=CCc1cccc(C2Nc3ccccc3C(=O)N2O)c1O` (stereo not given), in assay [2], the AC50 is 0.355 µM (inconclusive).

Regarding `Cc1ccc(-n2nnnc2SCC(=O)c2cc(C)n(CC3CCCO3)c2C)cc1` (stereo not given), the EC50 in assay [6] was 0.479 µM (active); in assay [7], > 30 µM (not active).

For `CCOC(=O)CN(C(=O)CCC(=O)Nc1cc(C)on1)C(C(=O)NC1CCCC1)c1cccnc1` (stereo not given), in [3], the AC50 is 17.8 µM (inconclusive). With `Cc1ccc(NC(=O)C2CCN(c3cnccn3)CC2)cc1C`, the EC50 in [6] is 1.55 µM (active); in assay [7], > 60 µM (not active). As for `c1ccc2c([C@@H]3CCN(CCN4CCOCC4)C3)c[nH]c2c1`, the concentration at half-maximal activity (AC50) in assay [2] is 3.98 µM (inconclusive). In the case of `Cc1cc(COC(=O)C2N3C(=O)[C@@H](NC(=O)COc4ccccc4)[C@H]3SC2(C)C)on1` (stereo not given in full), the results for the EC50 in assay [4] and in assay [5] were 0.384 µM (active) and 0.175 µM (active), respectively. As to `O=C(Oc1ccccc1)N1CCC2(CCCN(C(c3ccccc3)c3ccccc3)C2)CC1`, in assay [3], the AC50 is 2 µM (inconclusive). On to `CCNc1ncc2nc(-c3cc(F)cc(F)c3)c(=O)n(CCC#N)c2n1`, for which the half-maximal activity concentration (AC50) in assay [1] was 0.794 µM (inconclusive). In the case of `Cc1nn(Cc2ccc(Cl)cc2)c(C)c1NC(=O)Cn1nc([N+](=O)[O-])c(Cl)c1C`, the AC50 in assay [8] was 1.12 µM (inconclusive).
